Measured values: US9422293B2 (priority 2006, dated 2016)
Where a name gives a salt, the structure may show the parent alone.

biological target: rat TRPV1 (Rattus norvegicus (Rat), UniProt O35433); settings: read-out: Rat IC50
Sequence (O35433 whole entry): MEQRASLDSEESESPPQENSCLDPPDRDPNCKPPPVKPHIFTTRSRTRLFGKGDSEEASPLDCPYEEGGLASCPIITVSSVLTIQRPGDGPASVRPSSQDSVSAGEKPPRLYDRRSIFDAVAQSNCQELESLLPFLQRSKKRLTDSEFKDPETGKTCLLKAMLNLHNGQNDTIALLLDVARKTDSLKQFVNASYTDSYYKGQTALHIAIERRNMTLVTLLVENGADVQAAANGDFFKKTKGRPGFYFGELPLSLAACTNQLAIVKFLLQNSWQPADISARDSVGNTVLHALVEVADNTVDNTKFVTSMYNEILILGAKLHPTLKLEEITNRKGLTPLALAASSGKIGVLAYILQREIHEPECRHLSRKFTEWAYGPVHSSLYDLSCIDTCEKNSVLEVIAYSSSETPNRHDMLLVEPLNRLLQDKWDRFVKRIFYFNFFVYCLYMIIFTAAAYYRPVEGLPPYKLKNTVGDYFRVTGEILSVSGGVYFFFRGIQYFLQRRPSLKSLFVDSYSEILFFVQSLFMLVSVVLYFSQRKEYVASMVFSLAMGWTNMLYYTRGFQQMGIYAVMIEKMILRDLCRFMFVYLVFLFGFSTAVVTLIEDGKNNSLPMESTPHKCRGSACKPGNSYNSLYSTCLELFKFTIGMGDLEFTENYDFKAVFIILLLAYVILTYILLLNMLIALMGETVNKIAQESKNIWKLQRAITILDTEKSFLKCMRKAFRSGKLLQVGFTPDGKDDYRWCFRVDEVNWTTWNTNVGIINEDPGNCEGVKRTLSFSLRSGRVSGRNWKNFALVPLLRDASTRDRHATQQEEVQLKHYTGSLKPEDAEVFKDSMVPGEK

**Q.** `O=C1CN(c2nc3c(c(Nc4ccc(C(F)(F)F)cc4)n2)CCN(c2ncccc2C(F)(F)F)CC3)CCN1` [Example 90B, 4-[4-(4-Trifluoromethyl-phenylamino)-7-(3-trifluoromethyl-pyridin-2-yl)-6,7,8,9-tetrahydro-5H-pyrimido[4,5-d]azepin-2-yl]-piperazin-2-one trifluoroacetic acid salt] was tested. Which IC50 did it give?
**A.** > 6700 nM

**Q.** How did the IC50 turn out when `O=S1(=O)CCCCN1c1nc2c(c(Nc3ccc(C(F)(F)F)cc3)n1)CCN(c1ncccc1C(F)(F)F)CC2` [Example 212, 2-(1,1-Dioxido-1,2-thiazinan-2-yl)-N-[4-(trifluoromethyl)phenyl]-7-[3-(trifluoromethyl)pyridin-2-yl]-6,7,8,9-tetrahydro-5H-pyrimido[4,5-d]azepin-4-amine trifluoroacetic acid salt] was run?
**A.** 220 nM

**Q.** Which IC50 does the source give for `CC(C)c1nc2c(c(Nc3ccc(C(F)(F)F)cc3)n1)CCN(c1ncccc1S(C)(=O)=O)CC2` [Example 36, [2-Isopropyl-7-(3-methanesulfonyl-pyridin-2-yl)-6,7,8,9-tetrahydro-5H-pyrimido[4,5-d]azepin-4-yl]-(4-trifluoromethyl-phenyl)-amine] here?
**A.** 370 nM

**Q.** `CC(C)c1nc2c(c(Nc3ccc(C(C)(C)C(=O)O)cc3)n1)CCN(c1ncccc1C(F)(F)F)CC2` [Example 184, 2-Methyl-2-[4-({2-(1-methylethyl)-7-[3-(trifluoromethyl)pyridin-2-yl]-6,7,8,9-tetrahydro-5H-pyrimido[4,5-d]azepin-4-yl}amino)phenyl]propanoic acid] was tested. Which IC50 did it give?
**A.** 1950 nM

**Q.** How did the IC50 turn out when `O=S(=O)(c1ccc(Nc2nc(OC3CCOCC3)nc3c2CCN(c2ncccc2C(F)(F)F)CC3)cc1)N1CCCC1` [Example 335, N-[4-(Pyrrolidin-1-ylsulfonyl)phenyl]-2-(tetrahydro-2H-pyran-4-yloxy)-7-[3-(trifluoromethyl)pyridin-2-yl]-6,7,8,9-tetrahydro-5H-pyrimido[4,5-d]azepin-4-amine] was run?
**A.** 150 nM

**Q.** Which IC50 does the source give for `O=S(=O)(c1ccc(Nc2nc(SCc3ccccc3)nc3c2CCN(c2ncccc2C(F)(F)F)CC3)cc1)C(F)(F)F` [Example 359, 2-[(Phenylmethyl)sulfanyl]-7-[3-(trifluoromethyl)pyridin-2-yl]-N-{4-[(trifluoromethyl)sulfonyl]phenyl}-6,7,8,9-tetrahydro-5H-pyrimido[4,5-d]azepin-4-amine] here?
**A.** 320 nM

**Q.** Which IC50 does the source give for `CC(C)(C(=O)O)c1ccc(Nc2nc(N3CCOCC3)nc3c2CCN(c2ncccc2C(F)(F)F)CC3)cc1` [Example 392, 2-Methyl-2-{4-[2-morpholin-4-yl-7-(3-trifluoromethyl-pyridin-2-yl)-6,7,8,9-tetrahydro-5H-pyrimido[4,5-d]azepin-4-ylamino]-phenyl}-propionic acid] here?
**A.** 1540 nM

**Q.** How did the IC50 turn out when `Cc1cc(C(F)(F)F)ccc1Nc1nc(OC2CCOC2)nc2c1CCN(c1ncccc1C(F)(F)F)CC2` (centres unmarked) [Example 313, N-[2-Methyl-4-(trifluoromethyl)phenyl]-2-(tetrahydrofuran-3-yloxy)-7-[3-(trifluoromethyl)pyridin-2-yl]-6,7,8,9-tetrahydro-5H-pyrimido[4,5-d]azepin-4-amine] was run?
**A.** 560 nM

**Q.** For `FC(F)(F)c1ccc(Nc2nc(NCC3CC3)nc3c2CCN(c2ncccc2C(F)(F)F)CC3)cc1` [Example 95B, N^2-Cyclopropylmethyl-N^4-(4-trifluoromethyl-phenyl)-7-(3-trifluoromethyl-pyridin-2-yl)-6,7,8,9-tetrahydro-5H-pyrimido[4,5-d]azepine-2,4-diamine trifluoroacetic acid salt], which IC50 is on record?
**A.** 82 nM

**Q.** With `CC(C)c1nc2c(c(Nc3ccc(C(C)(C)C)c([N+](=O)[O-])c3)n1)CCN(c1ncccc1C(F)(F)F)CC2` [Example 143, N-[4-(1,1-Dimethylethyl)-3-nitrophenyl]-2-(1-methylethyl)-7-[3-(trifluoromethyl)pyridin-2-yl]-6,7,8,9-tetrahydro-5H-pyrimido[4,5-d]azepin-4-amine] as the compound, how does the IC50 read?
**A.** 130 nM

**Q.** `CC(C)Sc1nc2c(c(Nc3ccc(S(=O)(=O)C(F)(F)F)cc3)n1)CCN(c1ncccc1C(F)(F)F)CC2` [Example 361, 2-[(1-Methylethyl)sulfanyl]-7-[3-(trifluoromethyl)pyridin-2-yl]-N-{4-[(trifluoromethyl)sulfonyl]phenyl}-6,7,8,9-tetrahydro-5H-pyrimido[4,5-d]azepin-4-amine] was tested. Which IC50 did it give?
**A.** 1530 nM

**Q.** Which IC50 does the source give for `FC(F)(F)c1ccc(Nc2nc(N3CCCCCC3)nc3c2CCN(c2ncccc2C(F)(F)F)CC3)nc1` [Example 194, 2-Azepan-1-yl-7-[3-(trifluoromethyl)pyridin-2-yl]-N-[5-(trifluoromethyl)pyridin-2-yl]-6,7,8,9-tetrahydro-5H-pyrimido[4,5-d]azepin-4-amine] here?
**A.** 70 nM

**Q.** How did the IC50 turn out when `COC(=O)C(C)(C)c1ccc(Nc2nc(N3CCCCC3)nc3c2CCN(c2ncccc2C(F)(F)F)CC3)cc1` [Example 175, Methyl 2-methyl-2-[4-({2-piperidin-1-yl-7-[3-(trifluoromethyl)pyridin-2-yl]-6,7,8,9-tetrahydro-5H-pyrimido[4,5-d]azepin-4-yl}amino)phenyl]propanoate] was run?
**A.** 80 nM

**Q.** `CC(C)c1nc2c(c(Nc3ccc(C(F)(F)F)c(F)c3)n1)CCN(c1ncccc1C(F)(F)F)CC2` [Example 140, N-[3-Fluoro-4-(trifluoromethyl)phenyl]-2-(1-methylethyl)-7-[3-(trifluoromethyl)pyridin-2-yl]-6,7,8,9-tetrahydro-5H-pyrimido[4,5-d]azepin-4-amine] was tested. Which IC50 did it give?
**A.** 190 nM

**Q.** Which IC50 does the source give for `CC(C)c1nc2c(c(Nc3ccc(C(F)(F)F)cc3)n1)CCN(c1ccccc1[N+](=O)[O-])CC2` [Example 85, [2-Isopropyl-7-(2-nitro-phenyl)-6,7,8,9-tetrahydro-5H-pyrimido[4,5-d]azepin-4-yl]-(4-trifluoromethyl-phenyl)-amine] here?
**A.** > 6700 nM

**Q.** For `CC(Oc1nc2c(c(Nc3ccc(S(=O)(=O)C(F)(F)F)cc3)n1)CCN(c1ncccc1C(F)(F)F)CC2)C1CCCCC1` (centres unmarked) [Example 318, 2-[(1-Cyclohexylethyl)oxy]-7-[3-(trifluoromethyl)pyridin-2-yl]-N-{4-[(trifluoromethyl)sulfonyl]phenyl}-6,7,8,9-tetrahydro-5H-pyrimido[4,5-d]azepin-4-amine], which IC50 is on record?
**A.** > 6670 nM

**Q.** Which IC50 does the source give for `Cc1cc(C(F)(F)F)ccc1Nc1nc(OC2CCCCC2)nc2c1CCN(c1ncccc1C(F)(F)F)CC2` [Example 326, 2-(Cyclohexyloxy)-N-[2-methyl-4-(trifluoromethyl)phenyl]-7-[3-(trifluoromethyl)pyridin-2-yl]-6,7,8,9-tetrahydro-5H-pyrimido[4,5-d]azepin-4-amine] here?
**A.** 600 nM

**Q.** For `CC(C)(C)c1ccc(Nc2nc(C3CC3)nc3c2CCN(c2ncccc2C(F)(F)F)CC3)cc1` [Example 3, (4-tert-Butyl-phenyl)-[2-cyclopropyl-7-(3-trifluoromethyl-pyridin-2-yl)-6,7,8,9-tetrahydro-5H-pyrimido[4,5-d]azepin-4-yl]-amine], which IC50 is on record?
**A.** 95 nM

**Q.** Which IC50 does the source give for `CC(C)(C)c1ccc(Nc2nc(S(C)(=O)=O)nc3c2CCN(c2ncccc2C(F)(F)F)CC3)cc1` [Example 207, N-[4-(1,1-Dimethylethyl)phenyl]-2-(methylsulfonyl)-7-[3-(trifluoromethyl)pyridin-2-yl]-6,7,8,9-tetrahydro-5H-pyrimido[4,5-d]azepin-4-amine] here?
**A.** 770 nM

**Q.** `FC(F)(F)c1ccc(Nc2nc(N3CCCCCC3)nc3c2CCN(c2ncccc2C(F)(F)F)CC3)cc1` [Example 222, 2-Azepan-1-yl-N-[4-(trifluoromethyl)phenyl]-7-[3-(trifluoromethyl)pyridin-2-yl]-6,7,8,9-tetrahydro-5H-pyrimido[4,5-d]azepin-4-amine] was tested. Which IC50 did it give?
**A.** 20 nM
